Laboratory results from patent US11300570B2, “Therapeutic and diagnostic methods for cancer” (Genentech, Inc., priority 2016, dated 2022).

Test system: locally advanced or metastatic NSCLC (PD-L1-selected patients)
Assay: BIRCH and FIR Phase II single-arm trials of atezolizumab monotherapy in PD-L1-selected NSCLC, efficacy by tTMB
Type: in vivo, human
Conditions: for Median OS / Median PFS: 1L BIRCH/FIR; for ORR / Odds Ratio for Response / OS HR (95% CI) / PFS HR (95% CI): BIRCH and FIR 2L+; for Odds Ratio for Response / OS HR (95% CI) / PFS HR (95% CI): TMB-high vs TMB-low; for OS HR (95% CI) / PFS HR (95% CI): unadjusted, unstratified
Method: The correlation between the level of somatic mutations detected in a tumor tissue sample (e.g., mutation load, also referred to as tissue tumor mutational burden (tTMB)) and PD-L1 expression and their independent contribution to treatment with PD-L1 axis binding antagonists in non-small cell lung cancer (NSCLC) tumors was evaluated.
Pre-treatment tumor specimens from 465 patients with 2 L+ NSCLC who were enrolled in one of the three Phase II clinical trials (BIRCH, FIR, and POPLAR; Table 4 and 5), in which atezolizumab was administered as a monotherapy, were evaluated for tissue tumor mutational burden (tTMB). Tumor specimens from 1 L NSCLC patients were also evaluated in the BIRCH and FIR studies.
The efficacy analyses of the BIRCH population excluded these two untreated patients. Patients were eligible for enrollment in the BIRCH study if they had locally advanced or metastatic (e.g., stage IIIB, stage IV, or recurrent) NSCLC; a PD-L1-positive tumor status determined by an immunohistochemistry (IHC) assay based on PD-L1 expression in tumor infiltrating immune cells (IC) and/or tumor cells (TC); measurable disease, as defined by RECIST v1.1; and an Eastern Cooperative Oncology Group (ECOG) performance status of 0 or 1. Patients received atezolizumab at a dose of 1200 mg intravenously every three weeks for as long as patients were experiencing clinical benefit, i.e., in the absence of unacceptable toxicity or symptomatic deterioration attributed to disease progression.
The FIR (Clinical Trial ID No.: NCT01846416) patient population evaluated for tTMB consisted of 33 patients. Patients were eligible for enrollment in the FIR study if they had stage IIIB (e.g., not eligible for treatment by definitive chemoradiotherapy), stage IV, or recurrent NSCLC; a PD-L1-positive status as determined by an IHC assay; an ECOG performance status of 0 or 1; a life expectancy 12 weeks; measurable disease, as defined by RECIST v1.1; and adequate hematologic and end organ function. Patients received an intravenous dose of 1200 mg atezolizumab on Day 1 of each 21-day cycle until disease progression.
Data from the single-arm, PD-L1-selected trials BIRCH and FIR were combined and analyzed to examine the association between tTMB and clinical outcomes among PD-L1-selected patients. Data from the randomized, PD-L1-unselected trial, POPLAR, were analyzed separately and treatment effects between the atezolizumab- and docetaxel-treatment arms were compared.
To identify somatic mutations, tumor samples (e.g., archival tumor samples) were processed as described in Frampton et al. Nat. Biotechnol. 31:1023-31, 2013. Sequencing libraries were constructed to sequence and analyze samples. In addition to standard mutation processing, a mutation load estimation algorithm was applied that, based on the number of somatic mutations and/or rearrangements detected in Table 1 or Table 2, respectively, extrapolates to the exome or the genome as a whole. For purposes of mutation load estimation, all coding short variant alterations, base substitutions, and indels detected in the genes listed in Table 1 and Table 2 were counted. Further, all coding alterations (base substitutions and indels), including synonymous alterations, with the exception of known oncogenic driver mutations, in the genes listed in Table 1 and Table 2 were counted. […]

[1] = BEP (evaluable for TMB) (n = 102)

## atezolizumab
[1]
  Median OS: 20.1 months
  Median PFS: 7.0 months
ITT (n = 173)
  Median OS: 20.1 months
  Median PFS: 6.9 months
tTMB score <9 mut/Mb (n = 45)
  Median PFS: 4 months
tTMB score <16 mut/Mb (n = 85)
  Median OS: 20.1 months
  Median PFS: 6 months
tTMB score ≥9 mut/Mb (n = 57)
  Median OS: 20.1 months
  Median PFS: 8.3 months
tTMB score ≥16 mut/Mb (n = 17)
  Median PFS: 11.1 months
TMB-high (at or above 25% tTMB quantile cutoff)
  ORR: 22%
TMB-high (at or above 50% (median) tTMB cutoff)
  ORR: 25%
TMB-high (at or above 75% tTMB quantile cutoff)
  ORR: 29%
25% tTMB cutoff
  Odds Ratio for Response: 2.14
  OS HR (95% CI): 0.92 (0.64, 1.30)
  PFS HR (95% CI): 0.79 (0.60, 1.00)
50% (median) tTMB cutoff
  Odds Ratio for Response: 2.11
  OS HR (95% CI): 0.87 (0.65, 1.16)
  PFS HR (95% CI): 0.64 (0.50, 0.80)
75% tTMB cutoff
  Odds Ratio for Response: 2.20
  OS HR (95% CI): 0.70 (0.49, 1.00)
  PFS HR (95% CI): 0.5 (0.38, 0.67)
TMB-low (below 25% tTMB quantile cutoff)
  ORR: 11%
TMB-low (below 50% (median) tTMB cutoff)
  ORR: 14%
TMB-low (below 75% tTMB quantile cutoff)
  ORR: 16%
PD-L1-selected 2L+ patients with NSCLC, BIRCH and FIR
  association of tissue TMB with efficacy: associated with improved efficacy
All lines evaluated (1L and 2L+) in FIR and BIRCH
  association of tTMB with efficacy: associated with improved efficacy
